# Legend:
# OCI-Ly1 wt cells = format: cell-based; conditions: human, 24 h
# Protocol: (§1) The graph depicts a titration of ibrutinib to determine toxicity towards OCI-Ly1 cell models upon administration of serial dilutions of ibrutinib (11 steps, ranges 0.01 to 20 μM) to OCI-Ly1 wt or OCI-Ly1_R110 cells for 24 hours. Cell growth in percent was plotted as total numbers of ibrutinib-treated cells relative to the total number of untreated cells. […] This dose was thus chosen for further testing of CAR T efficacy.
# (§2) Coadministration of BTK-inhibitors like ibrutinib-a BTK/ITK inhibitor known to restore T cell functionality—to CAR T cell can have additive anti-tumor effects. To test this in the R110 CAR T setting, ibrutinib toxicity for OCI-Ly1 target cells was assessed first. For this, 2×10^4 OCI-Ly1 wt and OCI-Ly1_R110 cells were seeded in 200 μl culture media supplemented with serial dilutions of ibrutinib (PCI-32765, Selleck Chemicals, Cat. S2680) ranging from 0.01 to 20 μM. Cells grown under the same conditions without ibrutinib served as control. After 24h incubation, viable (trypan blue exclusion) cells were counted using the Vi-CELL XR system (Beckman Coulter). Cell growth in percent was then plotted as total numbers of ibrutinib-treated cells relative to the total number of untreated cells (FIG. 10). […] This dose was thus chosen for further testing of CAR T efficacy.
# OCI-Ly1_R110 cells = format: cell-based; conditions: human, 24 h
# Protocol: as §1, §2
smiles,measurement,setting,value
C=CC(=O)N1CCC[C@@H](n2nc(-c3ccc(Oc4ccccc4)cc3)c3c(N)ncnc32)C1 [ibrutinib],highest dose that does not result in a viability drop of target cells,OCI-Ly1 wt cells,0.08 UM
same,highest dose that does not result in a viability drop of target cells,OCI-Ly1_R110 cells,0.08 UM

# Reference: patent US20260035459A1, “HUMANIZED CHIMERIC ANTIGEN RECEPTORS TARGETING THE B-CELL RECEPTOR OF CHRONIC LYMPHOCYTIC LEUKEMIA AND USES THEREOF” (AVA LIFESCIENCE GMBH, priority 2022, published 2026)
